In ChEMBL document CHEMBL4052802, “Design, synthesis and biological evaluation of novel 3-oxo-4-oxa-5α-androst-17β-amide derivatives as dual 5α-reductase inhibitors and androgen receptor antagonists” (Bioorg Med Chem Lett, 2017):

What was measured:
PC-3 [1] = experiment: Growth inhibition of human PC3 cells at 80 uM after 48 hrs by MTT assay relative to control; type: functional; conditions: PC-3, 48 h, read-out: GI
LNCaP [2] = experiment: Growth inhibition of human LNCAP cells at 80 uM after 48 hrs by MTT assay relative to control; type: functional; conditions: read-out: GI
PC-3 [3] = experiment: Cytotoxicity against human PC3 cells after 48 hrs by MTT assay; type: functional, cell-based; conditions: PC-3, 48 h
LNCaP [4] = experiment: Cytotoxicity against human LNCAP cells after 48 hrs by MTT assay; type: functional, cell-based
Rattus norvegicus = organism: Rattus norvegicus; experiment: Inhibition of rat liver 5alpha-reductase at 50 uM using testosterone as substrate incubated for 30 mins measured for 10 mins by fluorescence assay relative to control
[5] = Selectivity ratio of IC50 for human PC3 cells to IC50 for human LNCAP cells; type: functional
[6] = molecular target: Androgen receptor (Homo sapiens) (UniProt P10275); experiment: Inhibition of recombinant human His-tagged/GST-fused androgen receptor LBD expressed in baculovirus expression system at 50 uM measured after 1.5 hrs by fluorescence polarization assay relative to control
Androgen receptor [7] = molecular target: T1, Androgen receptor (Rattus norvegicus, UniProt P15207); experiment: Displacement of fluormone-AL Green from recombinant rat His-tagged/GST-fused androgen receptor LBD expressed in baculovirus expression system measured after 1.5 hrs by fluorescence polarization assay
T1 sequence (P15207 whole entry): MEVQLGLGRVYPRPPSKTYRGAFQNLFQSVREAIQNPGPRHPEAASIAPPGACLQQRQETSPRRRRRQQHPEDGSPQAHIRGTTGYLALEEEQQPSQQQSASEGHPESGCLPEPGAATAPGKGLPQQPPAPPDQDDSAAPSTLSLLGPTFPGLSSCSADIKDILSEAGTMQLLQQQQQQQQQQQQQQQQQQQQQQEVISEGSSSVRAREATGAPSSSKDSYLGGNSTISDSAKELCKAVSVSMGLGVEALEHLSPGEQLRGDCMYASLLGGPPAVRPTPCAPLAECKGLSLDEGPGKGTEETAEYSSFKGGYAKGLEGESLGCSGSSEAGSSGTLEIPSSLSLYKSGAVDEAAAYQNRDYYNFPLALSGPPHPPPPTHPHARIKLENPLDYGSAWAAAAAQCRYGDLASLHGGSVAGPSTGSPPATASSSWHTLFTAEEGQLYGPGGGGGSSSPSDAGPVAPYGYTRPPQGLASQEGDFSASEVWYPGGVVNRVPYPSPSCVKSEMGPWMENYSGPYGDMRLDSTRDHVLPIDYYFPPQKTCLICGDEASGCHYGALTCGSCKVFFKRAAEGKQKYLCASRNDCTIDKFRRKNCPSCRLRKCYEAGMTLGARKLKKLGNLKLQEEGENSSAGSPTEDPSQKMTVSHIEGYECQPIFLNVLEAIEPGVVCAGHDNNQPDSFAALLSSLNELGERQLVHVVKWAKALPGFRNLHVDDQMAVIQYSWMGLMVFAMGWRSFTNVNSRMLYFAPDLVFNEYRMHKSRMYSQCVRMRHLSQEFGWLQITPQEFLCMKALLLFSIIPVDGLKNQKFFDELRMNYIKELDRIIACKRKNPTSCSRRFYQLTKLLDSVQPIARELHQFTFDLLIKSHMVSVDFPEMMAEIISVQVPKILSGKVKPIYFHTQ

[8] = Cmax in Sprague-Dawley rat at 0.2 mg/kg, po by LC-MS/MS analysis; type: ADME, organism-based; design: dose 0.2 mg/kg, route oral; conditions: in vivo
[9] = Inhibition of rat liver 5alpha-reductase using testosterone as substrate incubated for 30 mins measured for 10 mins by fluorescence assay
[10] = Elimination half-life in Sprague-Dawley rat at 0.2 mg/kg, po by LC-MS/MS analysis; type: ADME, organism-based; conditions: in vivo, read-out: beta t1/2 (converted)
Plasma [11] = experiment: Retention time in Sprague-Dawley rat plasma at 0.2 mg/kg, po measured after 24 hrs by total ion chromatographic method; type: ADME, organism-based; conditions: in vivo
[12] = AUC (0 to t) in Sprague-Dawley rat at 0.2 mg/kg, po by LC-MS/MS analysis; type: ADME, organism-based; conditions: in vivo
[13] = Tmax in Sprague-Dawley rat at 0.2 mg/kg, po by LC-MS/MS analysis; type: ADME, organism-based; conditions: in vivo
[14] = AUC (0 to infinity) in Sprague-Dawley rat at 0.2 mg/kg, po by LC-MS/MS analysis; type: ADME, organism-based; design: dose 0.2 mg/kg, route oral, time infinity; conditions: in vivo
[15] = molecular target: T2, 3-oxo-5-alpha-steroid 4-dehydrogenase 2 (Homo sapiens, UniProt P31213); experiment: Inhibition of recombinant human 5alpha-reductase type2 expressed in baculovirus expression system using [7-3H]T as substrate pretreated for 18 hrs followed by substrate addition by reverse-phase HPLC method
T2 sequence (P31213 whole entry): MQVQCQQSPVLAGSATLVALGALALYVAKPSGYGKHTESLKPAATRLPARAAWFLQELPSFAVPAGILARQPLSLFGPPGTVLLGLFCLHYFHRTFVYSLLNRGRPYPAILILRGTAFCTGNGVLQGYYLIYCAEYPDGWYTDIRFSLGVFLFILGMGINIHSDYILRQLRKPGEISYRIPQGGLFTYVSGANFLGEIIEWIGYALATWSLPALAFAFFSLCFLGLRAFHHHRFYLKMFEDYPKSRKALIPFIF

[16] = molecular target: T3, 3-oxo-5-alpha-steroid 4-dehydrogenase 1 (Homo sapiens, UniProt P18405); experiment: Inhibition of recombinant human 5alpha-reductase type1 expressed in baculovirus expression system using [7-3H]T as substrate pretreated for 18 hrs followed by substrate addition measured after 90 mins by reverse-phase HPLC method
T3 sequence (P18405 whole entry): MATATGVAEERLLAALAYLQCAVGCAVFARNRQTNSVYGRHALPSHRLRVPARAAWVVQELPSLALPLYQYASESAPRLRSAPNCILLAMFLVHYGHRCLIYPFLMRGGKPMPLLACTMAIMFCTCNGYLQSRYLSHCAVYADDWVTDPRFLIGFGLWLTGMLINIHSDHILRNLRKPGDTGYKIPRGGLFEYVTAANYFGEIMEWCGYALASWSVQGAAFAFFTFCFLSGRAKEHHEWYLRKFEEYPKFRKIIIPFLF

Androgen receptor [17] = molecular target: T4, Androgen receptor (Homo sapiens, UniProt P10275); experiment: Displacement of [3H]-DHT from recombinant human androgen receptor expressed in CHO cells; type: cell-based
T4 sequence (P10275 whole entry): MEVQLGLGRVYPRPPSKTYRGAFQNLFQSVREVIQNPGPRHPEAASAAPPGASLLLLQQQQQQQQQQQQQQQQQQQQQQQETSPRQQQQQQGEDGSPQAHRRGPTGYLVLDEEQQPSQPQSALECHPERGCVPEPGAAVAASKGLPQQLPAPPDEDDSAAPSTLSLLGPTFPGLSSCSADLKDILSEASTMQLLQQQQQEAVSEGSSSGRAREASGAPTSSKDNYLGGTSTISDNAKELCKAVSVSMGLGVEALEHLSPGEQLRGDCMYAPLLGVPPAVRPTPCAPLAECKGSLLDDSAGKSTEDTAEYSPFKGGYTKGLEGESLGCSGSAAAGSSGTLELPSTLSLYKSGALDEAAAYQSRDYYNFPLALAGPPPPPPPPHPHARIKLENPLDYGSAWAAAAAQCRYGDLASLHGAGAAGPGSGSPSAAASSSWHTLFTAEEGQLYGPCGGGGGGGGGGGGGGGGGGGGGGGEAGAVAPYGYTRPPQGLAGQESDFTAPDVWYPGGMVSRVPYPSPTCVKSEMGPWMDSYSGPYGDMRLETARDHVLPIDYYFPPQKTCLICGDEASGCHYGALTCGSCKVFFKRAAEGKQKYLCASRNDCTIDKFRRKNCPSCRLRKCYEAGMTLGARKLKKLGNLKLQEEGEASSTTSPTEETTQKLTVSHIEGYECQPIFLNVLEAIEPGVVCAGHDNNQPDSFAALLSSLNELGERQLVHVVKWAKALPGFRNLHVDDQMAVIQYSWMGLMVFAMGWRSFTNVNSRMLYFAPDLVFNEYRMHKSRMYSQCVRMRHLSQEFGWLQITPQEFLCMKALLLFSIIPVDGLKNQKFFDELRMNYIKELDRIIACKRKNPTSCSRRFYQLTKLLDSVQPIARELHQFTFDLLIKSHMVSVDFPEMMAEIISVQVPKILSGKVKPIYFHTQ

Plasma [18] = experiment: Drug uptake in Sprague-Dawley rat plasma at 0.2 mg/kg, po after 6 hrs by LC-MS/MS analysis; type: ADME, organism-based; conditions: in vivo

Row | SMILES | inhibition of growth at 80 µM (PC-3 [1]) | inhibition of growth at 80 µM (LNCaP [2]) | IC50 (PC-3 [3]) | inhibition (Rattus norvegicus) | inhibition [6] | other results
1 | CC(C)C(=O)Nc1ccc([N+](=O)[O-])c(C(F)(F)F)c1 [FLUTAMIDE] | 21.2% | 63% | 67.3 µM | – | – | IC50 (LNCaP [4]): 47.6 µM
2 | C[C@]12CCC(=O)O[C@@H]1CC[C@@H]1[C@@H]2CC[C@]2(C)[C@@H](C(=O)N(Cc3ccccc3)Cc3ccccc3)CC[C@@H]12 | 12.9% | 81.8% | 127 µM | 69.8% | 57.1% | Ratio IC50 [5]: 4; IC50 (Androgen receptor [7]): 16.8 µM; IC50 (LNCaP [4]): 29.8 µM
3 | C[C@H]1CC(=O)C[C@@H]2CC[C@H]3[C@@H]4CC[C@H](O)[C@@]4(C)CC[C@@H]3[C@]21C [MESTEROLONE] | – | – | – | – | – | IC50 (Androgen receptor [7]): 18.3 µM
4 | C[C@]12CCC(=O)O[C@@H]1CC[C@@H]1[C@@H]2CC[C@]2(C)[C@@H](C(=O)Nc3ccccc3)CC[C@@H]12 | 31.7% | 24.2% | 86.2 µM | 67.3% | 7.09% | –
5 | CC(C)(C)NC(=O)[C@H]1CC[C@H]2[C@@H]3CC[C@H]4NC(=O)C=C[C@]4(C)[C@H]3CC[C@]12C [FINASTERIDE] | 0.4% | – | > 80 µM | 94.3% | – | Cmax [8]: 4.19 ng/mL; IC50 [9]: 0.59 µM; half-life [10]: 3.91 h; Retention_time (Plasma [11]): 3.5 min; AUC(0-t) [12]: 23.5 ng·h/mL; Tmax [13]: 2.67 h; AUC(0-inf) [14]: 23.8 ng·h/mL
6 | C[C@]12CCC(=O)N[C@@H]1CC[C@@H]1[C@@H]2CC[C@]2(C)[C@@H](C(=O)Nc3ccccc3)CC[C@@H]12 | – | – | – | – | – | IC50 [15]: 0.015 µM; IC50 [16]: 0.41 µM; IC50 (Androgen receptor [17]): 23 µM
7 | C[C@]12CCC(=O)O[C@@H]1CC[C@@H]1[C@@H]2CC[C@]2(C)[C@@H](C(=O)N(C3CCCCC3)C3CCCCC3)CC[C@@H]12 | 32% | 13.8% | 74.3 µM | 33.4% | 11.3% | –
8 | C[C@]12CCC(=O)O[C@@H]1CC[C@@H]1[C@@H]2CC[C@]2(C)[C@@H](C(=O)N(c3ccccc3)c3ccccc3)CC[C@@H]12 | 35.4% | 31.4% | 75.2 µM | 15.5% | 3.29% | –
9 | CC(C)(C)NC(=O)[C@H]1CC[C@H]2[C@@H]3CC[C@H]4OC(=O)CC[C@]4(C)[C@H]3CC[C@]12C | 28.1% | 37.3% | 70.1 µM | 48.3% | 3.73% | –
10 | C[C@]12CCC(=O)O[C@@H]1CC[C@@H]1[C@@H]2CC[C@]2(C)[C@@H](C(=O)Nc3ccc(F)cc3)CC[C@@H]12 | 46.3% | 39.7% | 50 µM | 46.9% | 18.9% | –
11 | CCN(CC)C(=O)[C@H]1CC[C@H]2[C@@H]3CC[C@H]4OC(=O)CC[C@]4(C)[C@H]3CC[C@]12C | 27.9% | 42.7% | 68.2 µM | 39.5% | 33.7% | –
12 | CCCCN(CCCC)C(=O)[C@H]1CC[C@H]2[C@@H]3CC[C@H]4OC(=O)CC[C@]4(C)[C@H]3CC[C@]12C | 89.9% | 88.9% | 40.1 µM | 36.5% | 11.8% | IC50 (LNCaP [4]): 32.4 µM
13 | Cc1ccc(NC(=O)[C@H]2CC[C@H]3[C@@H]4CC[C@H]5OC(=O)CC[C@]5(C)[C@H]4CC[C@]23C)cc1 | 18.1% | 82.3% | 114 µM | 98.5% | 55.5% | Cmax [8]: 6.89 ng/mL; Ratio IC50 [5]: 4; IC50 [9]: 0.27 µM; half-life [10]: 4.74 h; Retention_time (Plasma [11]): 3.6 min; IC50 (Androgen receptor [7]): 47.6 µM; IC50 (LNCaP [4]): 26.5 µM; AUC(0-t) [12]: 52.5 ng·h/mL; Tmax [13]: 3.83 h; Drug uptake (Plasma [18]): Not Active; AUC(0-inf) [14]: 54.1 ng·h/mL
14 | C[C@]12CCC(=O)O[C@@H]1CC[C@@H]1[C@@H]2CC[C@]2(C)[C@@H](C(=O)N3CCCCC3)CC[C@@H]12 | 26.2% | 12.3% | 85.4 µM | 89.3% | 17.4% | IC50 [9]: 6.01 µM
15 | CN(C(=O)[C@H]1CC[C@H]2[C@@H]3CC[C@H]4OC(=O)CC[C@]4(C)[C@H]3CC[C@]12C)c1ccccc1 | 35.1% | 30% | 62.2 µM | 84.2% | 14.3% | IC50 [9]: 0.89 µM
